Experimental data published in ChEMBL document CHEMBL4138123, “Design, synthesis and biological evaluation of novel pyrazolochalcones as potential modulators of PI3K/Akt/mTOR pathway and inducers of apoptosis in breast cancer cells” (Eur J Med Chem, 2017).

Columns and labels:
A549 = assay: Cytotoxicity against human A549/ATCC cells assessed as growth inhibition after 48 hrs by sulforhodamine B assay; assay type: functional; details: A549, 48 h
NCI-H522 = assay: Cytotoxicity against human NCI-H522 cells assessed as growth inhibition after 48 hrs by sulforhodamine B assay; assay type: functional; details: NCI-H522, 48 h
COLO 205 [1] = assay: Cytotoxicity against human COLO205 cells assessed as growth inhibition after 48 hrs by sulforhodamine B assay; assay type: functional; details: COLO 205, 48 h
UACC-257 = assay: Cytotoxicity against human UACC257 cells assessed as growth inhibition after 48 hrs by sulforhodamine B assay; assay type: functional; details: UACC-257, 48 h
SK-OV-3 [2] = assay: Cytotoxicity against human SKOV3 cells assessed as growth inhibition after 48 hrs by sulforhodamine B assay; assay type: functional; details: SK-OV-3, 48 h
MCF7 [3] = assay: Cytotoxicity against human MCF7 cells assessed as growth inhibition after 48 hrs by MTT assay; assay type: functional, cell-based; details: MCF7, 48 h
Malme-3M [4] = assay: Cytotoxicity against human MALME-3M cells assessed as cell growth at 0.01 uM after 48 hrs by sulforhodamine B assay relative to control; assay type: functional; details: read-out: Activity
U-251 = assay: Cytotoxicity against human U251 cells assessed as cell growth at 0.01 uM after 48 hrs by sulforhodamine B assay relative to control; assay type: functional; details: U-251, 48 h, read-out: Activity
SNB-75 = assay: Cytotoxicity against human SNB75 cells assessed as cell growth at 0.01 uM after 48 hrs by sulforhodamine B assay relative to control; assay type: functional; details: SNB-75, 48 h, read-out: Activity
KM12 [5] = assay: Cytotoxicity against human KM12 cells assessed as cell growth at 0.01 uM after 48 hrs by sulforhodamine B assay relative to control; assay type: functional; details: KM12, 48 h, read-out: Activity
HCT-116 [6] = assay: Cytotoxicity against human HCT116 cells assessed as cell growth at 0.1 uM after 48 hrs by sulforhodamine B assay relative to control; assay type: functional; details: HCT-116, 48 h, read-out: Activity
NCI/ADR-RES [7] = assay: Cytotoxicity against human NCI/ADR-RES cells assessed as cell growth at 0.1 uM after 48 hrs by sulforhodamine B assay relative to control; assay type: functional; details: read-out: Activity
RXF 393 [8] = assay: Cytotoxicity against human RXF393 cells assessed as cell growth at 0.1 uM after 48 hrs by sulforhodamine B assay relative to control; assay type: functional; details: RXF 393, 48 h, read-out: Activity
MDA-MB-468 [9] = assay: Cytotoxicity against human MDA-MB-468 cells assessed as cell growth at 0.1 uM after 48 hrs by sulforhodamine B assay relative to control; assay type: functional; details: MDA-MB-468, 48 h, read-out: Activity
K562 = assay: Cytotoxicity against human K562 cells assessed as cell growth at 1 uM after 48 hrs by sulforhodamine B assay relative to control; assay type: functional; details: K562, 48 h, read-out: Activity
HCT-116 [10] = assay: Cytotoxicity against human HCT116 cells assessed as cell growth at 1 uM after 48 hrs by sulforhodamine B assay relative to control; assay type: functional; details: HCT-116, 48 h, read-out: Activity
KM12 [11] = assay: Cytotoxicity against human KM12 cells assessed as cell growth at 1 uM after 48 hrs by sulforhodamine B assay relative to control; assay type: functional; details: KM12, 48 h, read-out: Activity
SNB-19 [12] = assay: Cytotoxicity against human SNB19 cells assessed as cell growth at 1 uM after 48 hrs by sulforhodamine B assay relative to control; assay type: functional; details: SNB-19, 48 h, read-out: Activity
SK-OV-3 [13] = assay: Cytotoxicity against human SKOV3 cells assessed as cell growth at 1 uM after 48 hrs by sulforhodamine B assay relative to control; assay type: functional; details: SK-OV-3, 48 h, read-out: Activity
BT-549 = assay: Cytotoxicity against human BT549 cells assessed as cell growth at 1 uM after 48 hrs by sulforhodamine B assay relative to control; assay type: functional; details: BT-549, 48 h, read-out: Activity
COLO 205 [14] = assay: Cytotoxicity against human COLO205 cells assessed as cell growth at 10 uM after 48 hrs by sulforhodamine B assay relative to control; assay type: functional; details: COLO 205, 48 h, read-out: Activity
MDA-MB-435 = assay: Cytotoxicity against human MDA-MB-435 cells assessed as cell growth at 10 uM after 48 hrs by sulforhodamine B assay relative to control; assay type: functional; details: MDA-MB-435, 48 h, read-out: Activity
SN12C = assay: Cytotoxicity against human SN12C cells assessed as cell growth at 10 uM after 48 hrs by sulforhodamine B assay relative to control; assay type: functional; details: read-out: Activity
UO-31 = assay: Cytotoxicity against human UO31 cells assessed as cell growth at 10 uM after 48 hrs by sulforhodamine B assay relative to control; assay type: functional; details: UO-31, 48 h, read-out: Activity
DU-145 = assay: Cytotoxicity against human DU145 cells assessed as cell growth at 10 uM after 48 hrs by sulforhodamine B assay relative to control; assay type: functional; details: DU-145, 48 h, read-out: Activity
MCF7 [15] = assay: Cytotoxicity against human MCF7 cells assessed as cell growth at 10 uM after 48 hrs by sulforhodamine B assay relative to control; assay type: functional; details: MCF7, 48 h, read-out: Activity
T47D = assay: Cytotoxicity against human T47D cells assessed as cell growth at 10 uM after 48 hrs by sulforhodamine B assay relative to control; assay type: functional; details: read-out: Activity
MDA-MB-468 [16] = assay: Cytotoxicity against human MDA-MB-468 cells assessed as cell growth at 10 uM after 48 hrs by sulforhodamine B assay relative to control; assay type: functional; details: MDA-MB-468, 48 h, read-out: Activity
RPMI-8226 = assay: Cytotoxicity against human RPMI8226 cells assessed as cell growth at 100 uM after 48 hrs by sulforhodamine B assay relative to control; assay type: functional; details: RPMI-8226, 48 h, read-out: Activity
SR = assay: Cytotoxicity against human SR cells assessed as cell growth at 100 uM after 48 hrs by sulforhodamine B assay relative to control; assay type: functional; details: read-out: Activity
NCI-H460 = assay: Cytotoxicity against human NCI-H460 cells assessed as cell growth at 100 uM after 48 hrs by sulforhodamine B assay relative to control; assay type: functional; details: NCI-H460, 48 h, read-out: Activity
KM12 [17] = assay: Cytotoxicity against human KM12 cells assessed as cell growth at 100 uM after 48 hrs by sulforhodamine B assay relative to control; assay type: functional; details: KM12, 48 h, read-out: Activity
SNB-19 [18] = assay: Cytotoxicity against human SNB19 cells assessed as cell growth at 100 uM after 48 hrs by sulforhodamine B assay relative to control; assay type: functional; details: SNB-19, 48 h, read-out: Activity
Malme-3M [19] = assay: Cytotoxicity against human MALME-3M cells assessed as cell growth at 100 uM after 48 hrs by sulforhodamine B assay relative to control; assay type: functional; details: read-out: Activity
NCI/ADR-RES [20] = assay: Cytotoxicity against human NCI/ADR-RES cells assessed as cell growth at 100 uM after 48 hrs by sulforhodamine B assay relative to control; assay type: functional; details: read-out: Activity
RXF 393 [21] = assay: Cytotoxicity against human RXF393 cells assessed as cell growth at 100 uM after 48 hrs by sulforhodamine B assay relative to control; assay type: functional; details: RXF 393, 48 h, read-out: Activity

`COc1ccc(-c2cc(/C=C/C(=O)c3ccc(OC)c(OC)c3)[nH]n2)cc1` was tested, and the GI50 (A549) was 1.88 µM, the LC50 (concentration giving 50% net cell kill) (A549) was > 100 µM and the TGI (A549) was 5.95 µM. The GI50 (NCI-H522) was 0.41 µM, the LC50 (NCI-H522) was 5.91 µM and the TGI (NCI-H522) was 1.39 µM. It also gave a GI50 (COLO 205 [1]) of 1.76 µM, an LC50 (COLO 205 [1]) of 6.16 µM and a TGI (COLO 205 [1]) of 3.3 µM. The GI50 (UACC-257) was 1.73 µM, the LC50 (UACC-257) was 7.72 µM and the TGI (UACC-257) was 3.65 µM. It also gave a GI50 (SK-OV-3 [2]) of 5.56 µM, an LC50 (SK-OV-3 [2]) of 43.4 µM and a TGI (SK-OV-3 [2]) of 17.1 µM. For the same compound, the IC50 (MCF7 [3]) was 0.5 µM, the growth at 0.01 µM (Malme-3M [4]) was 89% and the growth at 0.01 µM (U-251) was 95%. For the same compound, the growth at 0.01 µM (SNB-75) was 88%, the growth at 0.01 µM (KM12 [5]) was 105% and the growth at 0.1 µM (HCT-116 [6]) was 105%. The growth at 0.1 µM (NCI/ADR-RES [7]) was 107%, the growth at 0.1 µM (RXF 393 [8]) was 93% and the growth at 0.1 µM (MDA-MB-468 [9]) was 90%. The growth at 1 µM (K562) was 56%, the growth at 1 µM (HCT-116 [10]) was 51% and the growth at 1 µM (KM12 [11]) was 70%. It also gave a growth at 1 µM (SNB-19 [12]) of 80%, a growth at 1 µM (SK-OV-3 [13]) of 112% and a growth at 1 µM (BT-549) of 85%. The growth at 10 µM (COLO 205 [14]) was -89%, the growth at 10 µM (MDA-MB-435) was -64% and the growth at 10 µM (SN12C) was -58%. For the same compound, the growth at 10 µM (UO-31) was -96%, the growth at 10 µM (DU-145) was -91% and the growth at 10 µM (MCF7 [15]) was -82%. The growth at 10 µM (T47D) was -28%, the growth at 10 µM (MDA-MB-468 [16]) was -69% and the growth at 100 µM (RPMI-8226) was -62%. It also gave a growth at 100 µM (SR) of -41%, a growth at 100 µM (NCI-H460) of -63% and a growth at 100 µM (KM12 [17]) of -79%. For the same compound, the growth at 100 µM (SNB-19 [18]) was -96%, the growth at 100 µM (Malme-3M [19]) was -100% and the growth at 100 µM (NCI/ADR-RES [20]) was -22%. The growth at 100 µM (RXF 393 [21]) was -92%.
